Experimental data published in patent US5047404A, “Chemical compounds” (Smith Kline & French Laboratories, Ltd., priority 1988, dated 1991).

How the values were obtained:
[1] = tested on: ovalbumen-induced bronchoconstrictor response; experiment: Anti-allergic activity: ovalbumen-induced bronchoconstrictor response in sensitised guinea-pigs; type: in vivo, guinea-pigs (male Duncan Hartley); conditions: dose 28 μmol/kg i.v. bolus, ovalbumen 1 mg.kg^-1 i.v. challenge 30 min after drug
Method: Male Duncan Hartley guinea-pigs (250-300 g) were sensitised to ovalbumen by i.p. injection of 2 ml of 50 mg.ml^-1 i.p. and 0.2 ml s.c. Three weeks later they were anaesthetised with 60 mg.kg^-1 sodium pentabarbitone. The trachea was cannulated and the animal respired at a rate of 40 breaths per minute and at an initial tracheal inflation pressure of 16 mmHg. Tracheal inflation pressure was measured by a transducer connected to a side arm of the respiration circuit. The carotid artery was cannulated for the measurement of blood pressure and the signal was used to trigger an instantaneous rate meter. A jugular vein was cannulated for the administration of drug and allergen. After surgery the animals were allowed to stabilise and the drug was administered i.v. as a bolus. Following this, ovalbumen 1 mg.kg^-1 was injected i.v. as the antigen challenge either 2, 15 or 30 minutes following drug treatment and the peak bronchoconstrictor response recorded. For the control group ovalbumen only was given. One ovalbumen challenge per guinea-pig was used and n=6 for each time point. The percentage increase in tracheal inflation pressure was calculated. The following results indicating an anti-allergic activity were obtained.

[2] = molecular target: calmodulin insensitive cyclic GMP phosphodiesterase (Homo sapiens, UniProt O76074); experiment: Phosphodiesterase activity: inhibition of calmodulin insensitive cyclic GMP phosphodiesterase; type: biochemical; conditions: procedure of European Patent Application No. 293063; read-out: IC50 (concentration of inhibitor required for 50% inhibition of enzyme activity)
[3] = tested on: hindquarter vascular resistance; experiment: Vasodilatation in vivo: hindquarter blood flow, perfused hind quarters; set-up: species or system rats (male Wistar); conditions: anaesthetised rats; bolus i.v., 10 μmol/kg
Method: Male Wistar rats (300 g) were anaesthetised with a sodium 5-ethyl-5-(I-methylpropyl)-2-thiobarbiturate/sodium pentobarbitone mixture i.p. (62.5 and 22.5 mg/kg respectively). The trachea was cannulated and the rats breathed spontaneously air enriched with O2 (5 ml/min). Blood pressure was recorded from a carotid artery and a jugular vein was cannulated for the administration of compounds. The temperature of the animal was maintained at 37° C. by the use of an electric blanket. […] The perfusion circuit was primed with 5% bovine serum albumin dissolved in 0.9% sodium chloride solution, pH adjusted to 7.4. Initially the pump rate was set between 10 and 15 ml/min to match the hind quarter perfusion pressure to that of the systemic circulation. Once set, the pressure remained unaltered for the rest of the experiment. A change in the speed of the pump (equivalent to hindquarter blood flow) was used to assess the changes in hindquarter vascular resistance.

SMILES | IC50 [2] [µM] | also measured
CCCOc1ccccc1-c1nc2ncccc2c(=O)[nH]1 [Example 1, 2-(2-Propoxyphenyl)pyrido[2,3-d]pyrimid-4(3H)-one] | – | % Inhibition of Control Bronchoconstrictor Response 30 min after drug administration [1]: 9%
CCCOc1ccccc1-c1nc2ncc(=O)[nH]c2c(=O)[nH]1 [Example 6, 2-(2-Propoxyphenyl)pteridin-4,6(3H,5H)-dione] | 0.55 to 11.4 | –
CCCOc1ccccc1-c1nc2[nH]c(=O)c(=O)[nH]c2c(=O)[nH]1 [Example 7, 2-(2-Propoxyphenyl)pteridin-4,6,7(3H,5H,8H)-trione] | 0.55 to 11.4 | –
CCCOc1ccccc1-c1nc2nnc(NC)nc2c(=O)[nH]1 [Example 10, 3-Methylamino-5,6-dihydro-5-oxo-7-(2-propoxyphenyl)pyrimido[5,4-e][1,2,4]triazine] | 0.55 to 11.4 | –
CCCOc1ccccc1-c1nc2nnc(OC)nc2c(=O)[nH]1 [Example 11, 3-Methoxy-5,6-dihydro-5-oxo-7-(2-propoxyphenyl)pyrimido[5,4-e][1,2,4]triazine] | 0.55 to 11.4 | –
CCCOc1ccccc1-c1nc2nc(SC)nnc2c(=O)[nH]1 [Example 12, 3-Methylthio-8-oxo 6-(2-propoxyphenyl)-7,8-dihydropyrimido[4,5-e][1,2,4]triazine] | – | increase in hindquarter blood flow [3]: 38%
